The assay concerns the target Vascular endothelial growth factor receptor 2 (Homo sapiens, UniProt P35968). The assay can be described thus: ADP-GloTM Assay. As for the experimental part: The protein kinase assays used to determine IC50 value were performed using ADP-GloTM assay kit. The assay was started by incubating the reaction mixture in a 96-well plate at 30 °C for 30 min. After the 30 min incubation period, the assay was terminated by the addition of […] of ADPGloTM Reagent. The 96-well plate was shaken and then incubated for 40 min at ambient temperature, […] of kinase detection reagent was added, the 96-well reaction plate was then read using ADP-GloTM luminescences protocol on GloMaxTM plate reader. Blank control waqs set up that included all the assay components except the addition of appropriate substrate (replace with equal volume of kinase assay buffer).
In general terms: In ADP-Glo the light output rises with the ADP produced.

Chain of Vascular endothelial growth factor receptor 2 (P35968 whole entry): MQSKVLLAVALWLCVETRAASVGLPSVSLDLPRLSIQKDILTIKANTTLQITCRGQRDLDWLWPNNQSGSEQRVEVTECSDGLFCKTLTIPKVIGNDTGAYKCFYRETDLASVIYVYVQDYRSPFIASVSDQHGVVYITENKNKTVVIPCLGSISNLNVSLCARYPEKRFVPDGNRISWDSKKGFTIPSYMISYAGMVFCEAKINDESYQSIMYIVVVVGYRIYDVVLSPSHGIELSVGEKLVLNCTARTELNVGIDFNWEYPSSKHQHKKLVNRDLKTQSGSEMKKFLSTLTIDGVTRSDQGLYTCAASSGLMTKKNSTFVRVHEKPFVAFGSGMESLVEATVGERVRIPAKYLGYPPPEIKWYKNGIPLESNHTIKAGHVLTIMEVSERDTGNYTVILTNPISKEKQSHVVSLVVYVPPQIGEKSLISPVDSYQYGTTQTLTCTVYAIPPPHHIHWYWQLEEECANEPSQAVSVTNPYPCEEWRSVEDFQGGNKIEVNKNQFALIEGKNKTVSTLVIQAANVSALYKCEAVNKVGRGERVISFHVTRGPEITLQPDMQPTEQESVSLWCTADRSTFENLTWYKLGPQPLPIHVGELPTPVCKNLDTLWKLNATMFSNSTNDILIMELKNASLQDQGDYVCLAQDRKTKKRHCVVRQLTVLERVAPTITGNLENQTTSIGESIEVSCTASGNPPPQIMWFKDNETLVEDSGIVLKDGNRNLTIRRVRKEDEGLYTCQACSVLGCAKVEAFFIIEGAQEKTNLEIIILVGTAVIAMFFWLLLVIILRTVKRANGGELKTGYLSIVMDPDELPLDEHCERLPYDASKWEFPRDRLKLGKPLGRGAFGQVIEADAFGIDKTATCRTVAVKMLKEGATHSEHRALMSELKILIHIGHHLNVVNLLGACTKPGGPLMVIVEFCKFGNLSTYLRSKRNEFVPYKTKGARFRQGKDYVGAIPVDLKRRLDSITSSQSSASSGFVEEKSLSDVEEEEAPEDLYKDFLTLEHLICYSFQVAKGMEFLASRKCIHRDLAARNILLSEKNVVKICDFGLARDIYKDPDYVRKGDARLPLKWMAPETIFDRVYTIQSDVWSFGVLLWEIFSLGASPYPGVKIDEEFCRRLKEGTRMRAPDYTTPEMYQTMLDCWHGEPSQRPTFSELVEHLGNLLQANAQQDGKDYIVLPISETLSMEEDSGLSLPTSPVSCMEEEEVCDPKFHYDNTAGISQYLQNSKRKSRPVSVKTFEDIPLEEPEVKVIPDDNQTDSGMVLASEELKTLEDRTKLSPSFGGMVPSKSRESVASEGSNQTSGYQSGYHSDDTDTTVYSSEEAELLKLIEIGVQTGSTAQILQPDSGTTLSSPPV

On to `Cc1cc(C)c2c(Nc3ncnc4c3sc3nc(C)cc(C)c34)csc2n1` [N-(4,6-dimethylthieno[2,3-b]pyridine)-7,9-dimethylpyrido[30,20:4,5]thieno[3,2-d]pyrimidin-4-amine (9d)], for which the IC50 (usually the concentration that gives 50% inhibition) worked out at 2600 nM.

The record behind these values is BindingDB's records for doi:10.1016/j.bioorg.2015.03.004 (Suez Canal University, 2015).
